The values that follow come from paper PMC9229563, “Pharmacokinetics and the Dermal Absorption of Bromochlorophene, a Cosmetic Preservative Ingredient, in Rats” (Toxics, 2022).

As usually defined, the AUC is the area under the concentration-time curve, a measure of exposure. Read a high AUC as high exposure. What is called AUC(0-inf) is the area under the concentration-time curve extrapolated to infinity. Read a high AUC(0-inf) as more exposure. In general, clearance refers to a measure of how efficiently the substance is removed, as volume per time. Broadly, the Vd is the apparent volume that relates the amount in the body to the concentration in plasma or blood. As a reminder, the bioavailability is the share of a dose that reaches the circulation, judged against a reference dose that is usually intravenous.

The conditions of data set [1]: cited from earlier work.
Another data set relates to glucocorticoid receptor. On the set-up: method as in PMID 33064576. Particulars: in silico and in vitro studies; cited from earlier work.
Another data set deals with gram-positive bacteria. Also noted: method as in Table S1. Conditions: ref Table S1; cited from earlier work.
The subject of another data set is estrogen receptor α. Also noted: method as in PMID 33064576. Conditions: in silico and in vitro studies; cited from earlier work.
Details of data set [2]: method as in PMID 34335256. Conditions: female rats, oral, 28 days, 500 and 1000 mg/kg; cited from earlier work.
The next data set has as its system yeasts / moulds. Also noted: method as in Table S1. Conditions: ref Table S1; cited from earlier work.
For another data set, the system named is thyroid receptor β. Also noted: method as in PMID 33064576. Conditions: in silico and in vitro studies; cited from earlier work.
Details of data set [3]: method as in Table S1. Particulars: ref Table S1; cited from earlier work.
Data set [4] in a line: Stability of BCP in receptor fluid (6% POE20). The class given is physicochemical. Conditions: 0.5 mg/mL, 48 h, 32 °C, sink conditions, n = 3.
Description: The in vitro dermal absorption study followed the guidelines of the Korea Ministry of Food and Drug Safety [15] with a Franz diffusion cell system consisting of a vision Microette auto-sampler, stirring drive, circulating water bath, stirring control, and autofill (Hanson, Chatsworth, CA, USA). The volume of the receptor fluid chamber was 12 mL and the temperature of the receptor fluid was maintained in a circulating water bath at 32 °C. […] The skin, after hydrating with normal saline for 5 min, was then placed between the donor and receptor compartments of the diffusion cells. […] Each formulation (~200 mg) was applied to 1.77 cm^2 of the donor chamber.
Data set [5] is described as follows: Intravenous pharmacokinetics in rats. The class given is in vivo. Particulars: rat; for half-life / AUC / AUC(0-inf) / clearance / Cmax / Vd: plasma, iv, n = 3; for half-life: glycerol formal, read-out: T1/2, terminal elimination half-life (converted); for clearance: read-out: CL, systemic clearance (converted); for Cmax: read-out: Cmax, peak plasma concentration; for Vd: read-out: Vd, volume of distribution. Here is the method: Blood samples (>0.2 mL) for plasma were collected by cannulated right jugular vein at 1, 2, 5, 10, and 30 min, and 1, 2, 4, 6, 12, 24, 36, and 48 h post-dose. Plasma samples were harvested by centrifugation at 13,000 rpm for 10 min and stored at −20 °C until analysis.
To analyze the in vivo (dermal and i.v. application) samples, 50 µL of the plasma was used, and extraction and analysis methods were the same as in vitro samples.
In the in vivo study, the terminal elimination half-life (T1/2) was calculated to be 0.693/λz. The slope of the last phase (λz) is the individual estimate of the terminal elimination rate constant, which is calculated using log-linear regression of the terminal portions of the plasma concentration–time curves. The area under the plasma concentration–time curve from time zero to the last observation time point (AUCall) was calculated using the trapezoidal rule, and the AUC to infinity time (AUCinf) was obtained by adding Cn/λz to the AUCall (Cn: last concentration of chemical). Systemic clearance (CL) was calculated as dose/AUC. The apparent volume of the distribution (Vd) during the terminal phase was calculated as CL/λz. The peak plasma concentration (Cmax) and time to reach Cmax (Tmax) were determined directly from these observations. The relative bioavailability (F) after dermal application was calculated as F (%) = 100 (Doseiv·AUCdermal)/(Dosedermal·AUCiv).
The plasma concentration–time data were analyzed using a non-compartmental WinNonlin model (version 2.1, Pharsight, NC, USA) to acquire i.v. and dermal pharmacokinetic parameters.

A further data set concerns thyroid receptor α. On the set-up: method as in PMID 33064576. Conditions: in silico and in vitro studies; cited from earlier work.
In another data set the test system is androgen receptor. On the set-up: method as in PMID 33064576. Conditions: in silico and in vitro studies; cited from earlier work.
Details of data set [6]: method as in PMID 34335256. Particulars: hydrogel formulation, 0.262 mg/kg rat dorsal application; cited from earlier work.
For a further data set, the system named is gram-negative bacteria. Also noted: method as in Table S1. Conditions: ref Table S1; cited from earlier work.
Data set [7] can be described thus: Dermal pharmacokinetics / in vivo dermal absorption in rats. On the set-up: species or system rat. How it is done: Blood samples (approximately 0.2 mL) were taken periodically by cannulated right jugular vein at 15 and 30 min, and 1, 2, 4, 8, 12, 24, 36, and 48 h post-dose. […] To analyze the in vivo (dermal and i.v. application) samples, 50 µL of the plasma was used, and extraction and analysis methods were the same as in vitro samples. […] The slope of the last phase (λz) is the individual estimate of the terminal elimination rate constant, which is calculated using log-linear regression of the terminal portions of the plasma concentration–time curves. The area under the plasma concentration–time curve from time zero to the last observation time point (AUCall) was calculated using the trapezoidal rule, and the AUC to infinity time (AUCinf) was obtained by adding Cn/λz to the AUCall (Cn: last concentration of chemical). Systemic clearance (CL) was calculated as dose/AUC. The apparent volume of the distribution (Vd) during the terminal phase was calculated as CL/λz. The peak plasma concentration (Cmax) and time to reach Cmax (Tmax) were determined directly from these observations. […] The plasma concentration–time data were analyzed using a non-compartmental WinNonlin model (version 2.1, Pharsight, NC, USA) to acquire i.v. and dermal pharmacokinetic parameters.

Where two headings read alike, the source gives them in different places.

In the case of `COc1ccc(C(=O)c2ccccc2)c(O)c1` [benzophenone-3], in data set [1], the LogPow was 3.58.
Take `C[C@]12CC[C@H]3[C@@H](CCC4=CC(=O)CC[C@@]43C)[C@@H]1CC[C@@H]2O` [testosterone, reference compound]: in data set [1], the LogPow is 3.3.
As to `Oc1c(Br)cc(Cl)cc1Cc1cc(Cl)cc(Br)c1O` [BCP, 2,2'-Methylenbis (6-bromo-4-chlorophenol)], in the data set with glucocorticoid receptor, the “Action on glucocorticoid receptor” value is recorded as “antagonist”. For the same compound, the “Effect of preservative, gram-positive bacteria” value with gram-positive bacteria is reported as “good”. For the same compound, the “Action on estrogen receptor α” value with estrogen receptor α is “antagonist”. The “Hematological and histopathological characteristics” value in data set [2] is “altered”. Moreover, the “Effect of preservative, yeasts / moulds” value in the data set with yeasts / moulds is reported as “inadequate”. For the same compound, the “Action on thyroid receptor β” value with thyroid receptor β is given as “antagonist”. Further, the Solubility in water in [3] is below 5 µg/mL. In addition, the “Stability in 6% POE20” value in [4] was “stable”. In addition, in data set [5] (i.v. 0.2 mg/kg), the half-life was 34.5 ± 5.87 h, the AUC was 4190 ± 320 ng·h/mL, the AUC(0-inf) was 5860 ± 767 ng·h/mL and the clearance was 0.576 mL/min/kg. For the same compound, in data set [5] (i.v. 0.2 mg/kg), the Cmax came to 4190 ± 1690 ng/mL and the Vd is 1.74 ± 0.072 L/kg. In [5] (i.v. 1 mg/kg), the half-life is 30.5 ± 1.83 h, the AUC was 30500 ng·h/mL, the AUC(0-inf) was 41600 ng·h/mL and the clearance was 0.401 mL/min/kg. Besides, in [5] (i.v. 1 mg/kg), the Cmax was 11400 ng/mL and the Vd was found to be 1.06 ± 0.0502 L/kg. In addition, the “AUCs (AUCall and AUCinf) in plasma at 1 mg/kg versus 0.2 mg/kg” value in data set [5] (i.v.) is “approximately 7 fold”. The “Action on thyroid receptor α” value in the data set with thyroid receptor α was “antagonist”. For the same compound, the “Action on androgen receptor” value in the data set with androgen receptor was “antagonist”. Also, the BCP absorption in data set [6] is on record as 29.25 ± 6.09%. For the same compound, the “Effect of preservative, gram-negative bacteria” value in the data set on gram-negative bacteria is “moderate”. Further, the LogPow in data set [1] (ref Table S1) was 6.12. In addition, the “Representative (total) dermal absorption of BCP” value in data set [7] (determined from the in vivo PK / dermal study in rats) was found to be 12.20 ± 2.63%. Further, the bioavailability in data set [7] (rat, plasma, topical, 234 mg/kg formulation, read-out: F, dermal bioavailability) was 12.2 ± 2.63%.
Turning to `CC1CC(OC(=O)c2ccccc2O)CC(C)(C)C1` (centres unmarked) [homosalate], in data set [1], the LogPow was 5.94.
As to `CCCCC(CC)COC(=O)C=Cc1ccc(OC)cc1` (centres unmarked) [ethylhexyl methoxycinnamate], the LogPow in [1] is on record as 5.96.
